In data set [1] the target is T1, kinase enzymes (Homo sapiens, UniProt P42336).
T1 construct: purchased DiscoveRx Corporation, San Diego (contract service, KINOMEscan)
Kind of data set: Enzyme binding assay (KINOMEscan, DiscoveRx), further kinases of Table A. As to conditions: PIK3Cα_h. The method in brief:
(§1)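 Binding affinities were measured on the KINOMEscan platform.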

In data set [2] the target is T2, kinase enzymes (Homo sapiens, UniProt P42345).
T2 construct: purchased DiscoveRx Corporation, San Diego (contract service, KINOMEscan)
The data set is described as above. As to conditions: MTOR_h. Put shortly:
as §1

For data set [3], the target named is T3, kinase enzymes (Homo sapiens, UniProt P48736).
T3 construct: purchased DiscoveRx Corporation, San Diego (contract service, KINOMEscan)
T3 sequence (P48736 whole entry): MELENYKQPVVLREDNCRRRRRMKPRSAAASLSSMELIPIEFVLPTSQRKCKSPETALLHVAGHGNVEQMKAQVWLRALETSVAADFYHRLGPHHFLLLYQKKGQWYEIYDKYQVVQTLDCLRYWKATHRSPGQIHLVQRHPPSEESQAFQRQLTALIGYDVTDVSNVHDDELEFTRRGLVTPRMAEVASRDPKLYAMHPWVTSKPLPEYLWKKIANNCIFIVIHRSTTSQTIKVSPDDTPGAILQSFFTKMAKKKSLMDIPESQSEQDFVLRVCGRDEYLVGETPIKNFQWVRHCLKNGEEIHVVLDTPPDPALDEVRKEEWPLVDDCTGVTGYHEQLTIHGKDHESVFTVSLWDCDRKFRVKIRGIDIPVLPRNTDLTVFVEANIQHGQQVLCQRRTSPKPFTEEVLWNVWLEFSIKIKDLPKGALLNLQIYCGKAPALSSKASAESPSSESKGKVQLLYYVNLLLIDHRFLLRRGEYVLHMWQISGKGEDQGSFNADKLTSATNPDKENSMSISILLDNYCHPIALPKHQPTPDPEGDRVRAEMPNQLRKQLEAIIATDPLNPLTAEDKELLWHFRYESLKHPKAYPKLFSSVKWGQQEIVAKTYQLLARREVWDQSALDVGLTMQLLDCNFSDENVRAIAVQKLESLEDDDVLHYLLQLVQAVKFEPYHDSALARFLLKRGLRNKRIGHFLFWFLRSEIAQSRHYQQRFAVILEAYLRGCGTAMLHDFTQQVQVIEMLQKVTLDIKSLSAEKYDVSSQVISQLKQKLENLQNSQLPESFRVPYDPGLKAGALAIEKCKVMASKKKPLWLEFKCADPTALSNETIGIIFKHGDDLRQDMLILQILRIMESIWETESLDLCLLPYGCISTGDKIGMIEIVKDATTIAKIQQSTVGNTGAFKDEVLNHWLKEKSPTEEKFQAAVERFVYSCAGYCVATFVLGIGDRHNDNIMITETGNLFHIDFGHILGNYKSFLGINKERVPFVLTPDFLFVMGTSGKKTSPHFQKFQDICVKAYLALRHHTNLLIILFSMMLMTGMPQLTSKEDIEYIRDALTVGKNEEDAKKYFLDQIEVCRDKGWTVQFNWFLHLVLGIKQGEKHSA
Described as above. The conditions noted are these: PIK3Cγ_h. The method in brief:
as §1

Data set [4] concerns Akt phosphorylated at Ser473 in PC-3 cells. Kind of data set: Cellular assay: phosphorylation of Akt at Ser473 in PC-3 cells (MSD ELISA). Type of data set: cell-based. The conditions noted are these: Homo sapiens, PC-3, 1 h, PC-3 cells, 60 min compound incubation, MSD ELISA; read-out: IC50 pAkt_S473. The method in brief:
(§2)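 After lysis of treated cells (60 min, 37° C, 0.3% DMSO), phospho-Akt levels were measured by MSD electrochemiluminescence ELISA. Potency was derived from concentration-response curves fitted over five concentrations.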
On the technique in general: An ELISA detects its analyte on a solid surface through an enzyme-linked reagent.

Data set [5] concerns the target T4, PI3Kδ (Homo sapiens, UniProt O00329).
T4 construct: purchased DiscoveRx Corporation, San Diego (contract service, KINOMEscan)
T4 sequence (O00329 1-1044): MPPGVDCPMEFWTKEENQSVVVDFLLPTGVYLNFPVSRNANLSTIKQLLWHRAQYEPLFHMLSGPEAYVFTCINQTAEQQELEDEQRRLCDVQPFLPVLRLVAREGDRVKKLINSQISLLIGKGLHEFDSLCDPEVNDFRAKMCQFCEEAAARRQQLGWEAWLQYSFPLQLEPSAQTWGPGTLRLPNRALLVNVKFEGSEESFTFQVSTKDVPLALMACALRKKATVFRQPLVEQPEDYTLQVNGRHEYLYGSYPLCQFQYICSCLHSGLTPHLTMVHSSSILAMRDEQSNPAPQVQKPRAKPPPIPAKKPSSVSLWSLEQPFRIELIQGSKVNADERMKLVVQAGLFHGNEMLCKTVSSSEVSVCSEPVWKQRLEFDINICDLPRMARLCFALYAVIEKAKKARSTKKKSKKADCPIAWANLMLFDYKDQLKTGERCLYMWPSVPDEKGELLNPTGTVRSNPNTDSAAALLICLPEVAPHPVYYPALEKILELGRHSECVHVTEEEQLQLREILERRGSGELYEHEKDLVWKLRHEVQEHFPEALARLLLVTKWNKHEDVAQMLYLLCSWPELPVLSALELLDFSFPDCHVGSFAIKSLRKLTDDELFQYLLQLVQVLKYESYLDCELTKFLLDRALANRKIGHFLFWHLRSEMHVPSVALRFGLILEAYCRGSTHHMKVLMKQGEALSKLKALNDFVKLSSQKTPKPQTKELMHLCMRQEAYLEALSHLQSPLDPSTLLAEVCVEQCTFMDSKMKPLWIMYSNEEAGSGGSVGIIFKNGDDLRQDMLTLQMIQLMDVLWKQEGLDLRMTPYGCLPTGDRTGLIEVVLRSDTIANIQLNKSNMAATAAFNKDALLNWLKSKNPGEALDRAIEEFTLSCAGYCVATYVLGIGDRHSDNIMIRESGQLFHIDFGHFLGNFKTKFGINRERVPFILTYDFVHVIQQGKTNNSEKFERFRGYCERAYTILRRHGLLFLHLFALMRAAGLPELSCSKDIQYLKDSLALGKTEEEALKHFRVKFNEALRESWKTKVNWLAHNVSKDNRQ
Kind of data set: Enzyme binding assay (KINOMEscan, DiscoveRx). As to conditions: PIK3Cδ_h. Put shortly:
as §1

For data set [6], the system named is Akt phosphorylated at Thr308 in PC-3 cells. The experiment in a line: Cellular assay: phosphorylation of Akt at Thr308 in PC-3 cells (MSD ELISA). As to conditions: Homo sapiens, PC-3, 1 h, PC-3 cells, 60 min compound incubation, MSD ELISA; read-out: IC50 pAkt_Thr308. The class given is cell-based. Put shortly:
as §2

Data set [7] deals with T5, PI3Kβ (Homo sapiens, UniProt P42338).
T5 construct: purchased DiscoveRx Corporation, San Diego (contract service, KINOMEscan)
T5 sequence (P42338 whole entry): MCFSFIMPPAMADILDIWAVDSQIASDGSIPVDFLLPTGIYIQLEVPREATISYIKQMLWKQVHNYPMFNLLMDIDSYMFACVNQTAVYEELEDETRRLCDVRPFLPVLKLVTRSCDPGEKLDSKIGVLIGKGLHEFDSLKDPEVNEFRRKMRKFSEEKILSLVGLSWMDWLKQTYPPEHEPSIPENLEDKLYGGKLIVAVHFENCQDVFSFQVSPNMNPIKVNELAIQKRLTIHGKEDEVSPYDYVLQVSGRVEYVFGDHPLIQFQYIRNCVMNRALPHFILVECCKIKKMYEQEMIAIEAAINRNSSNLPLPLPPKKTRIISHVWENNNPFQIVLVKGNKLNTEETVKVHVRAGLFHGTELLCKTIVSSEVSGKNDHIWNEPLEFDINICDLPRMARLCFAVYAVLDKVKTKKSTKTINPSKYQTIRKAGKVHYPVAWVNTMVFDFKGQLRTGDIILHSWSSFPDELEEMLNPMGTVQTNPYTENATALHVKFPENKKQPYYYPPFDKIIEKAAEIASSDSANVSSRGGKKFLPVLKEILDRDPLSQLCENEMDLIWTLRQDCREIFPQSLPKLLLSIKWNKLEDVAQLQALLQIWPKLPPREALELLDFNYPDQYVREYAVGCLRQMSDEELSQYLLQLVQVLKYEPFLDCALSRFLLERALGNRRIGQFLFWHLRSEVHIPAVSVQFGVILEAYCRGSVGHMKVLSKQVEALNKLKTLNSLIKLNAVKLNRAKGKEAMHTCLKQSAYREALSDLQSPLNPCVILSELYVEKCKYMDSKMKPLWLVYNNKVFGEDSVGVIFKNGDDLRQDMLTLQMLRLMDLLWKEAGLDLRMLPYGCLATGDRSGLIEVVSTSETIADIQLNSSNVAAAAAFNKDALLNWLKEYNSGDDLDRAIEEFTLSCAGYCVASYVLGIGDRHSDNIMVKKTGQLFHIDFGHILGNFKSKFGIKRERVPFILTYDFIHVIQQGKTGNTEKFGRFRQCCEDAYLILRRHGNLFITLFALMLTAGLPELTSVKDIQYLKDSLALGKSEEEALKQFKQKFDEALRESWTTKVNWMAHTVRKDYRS
The experiment in a line: Enzyme binding assay (KINOMEscan, DiscoveRx). As to conditions: PIK3Cβ_h, read-out: Kd PIK3Cβ_h. Put shortly:
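Kinase binding affinities were measured with KINOMEscan technology. Results are given as Kd, the inhibitor binding constant, in nM.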

The text below walks through data of patent publication US10526316B2, “Quinoxaline and pyridopyrazine derivatives as PI3Kβ inhibitors” (Janssen Pharmaceutica NV, priority 2015, dated 2020).

T1 sequence (P42336 whole entry): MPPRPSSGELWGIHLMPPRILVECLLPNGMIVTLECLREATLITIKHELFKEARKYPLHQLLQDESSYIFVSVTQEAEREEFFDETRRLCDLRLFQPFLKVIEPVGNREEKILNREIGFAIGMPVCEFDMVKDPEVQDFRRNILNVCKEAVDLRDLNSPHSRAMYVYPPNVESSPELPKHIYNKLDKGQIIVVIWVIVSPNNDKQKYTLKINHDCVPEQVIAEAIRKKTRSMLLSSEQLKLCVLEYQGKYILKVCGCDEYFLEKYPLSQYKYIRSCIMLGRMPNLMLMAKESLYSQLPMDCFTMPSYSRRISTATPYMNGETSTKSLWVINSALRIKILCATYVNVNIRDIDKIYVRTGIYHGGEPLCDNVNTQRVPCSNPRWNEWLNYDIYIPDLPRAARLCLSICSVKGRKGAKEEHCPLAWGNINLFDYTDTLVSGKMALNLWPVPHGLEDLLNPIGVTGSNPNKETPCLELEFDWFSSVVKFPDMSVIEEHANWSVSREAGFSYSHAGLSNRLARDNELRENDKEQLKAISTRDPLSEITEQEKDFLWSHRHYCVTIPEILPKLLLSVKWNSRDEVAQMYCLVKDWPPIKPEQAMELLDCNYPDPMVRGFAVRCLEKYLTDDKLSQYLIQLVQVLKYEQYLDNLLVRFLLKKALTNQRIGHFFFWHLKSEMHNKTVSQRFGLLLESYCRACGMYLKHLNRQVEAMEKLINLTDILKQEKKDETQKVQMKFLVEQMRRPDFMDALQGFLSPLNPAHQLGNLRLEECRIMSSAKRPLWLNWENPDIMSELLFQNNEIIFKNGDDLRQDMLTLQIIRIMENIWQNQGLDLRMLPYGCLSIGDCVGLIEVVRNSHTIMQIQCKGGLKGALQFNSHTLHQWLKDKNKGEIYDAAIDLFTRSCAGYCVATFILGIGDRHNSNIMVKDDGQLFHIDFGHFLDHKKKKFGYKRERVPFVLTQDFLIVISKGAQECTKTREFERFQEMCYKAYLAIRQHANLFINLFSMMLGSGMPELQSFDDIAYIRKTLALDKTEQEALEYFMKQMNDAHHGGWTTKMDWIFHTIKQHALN

The term melting point denotes the temperature of the solid-liquid transition. The Kd is a measure of binding affinity in units of concentration. A word on the IC50: it is the concentration that inhibits the measured activity by half. With `CC(Nc1cc(F)cc(F)c1)c1cc(C(=O)N2CCN(CC(F)(F)F)CC2)cc2ncc(N3CCOCC3)nc12` (single isomer, unassigned) [Compound 172], the melting point amounted to 130 °C. Besides, the Kd in data set [1] was > 30.2 µM. The Kd in data set [2] was > 30.2 µM. Further, in data set [3], the Kd was > 30.2 µM. The half-maximal inhibitory concentration (IC50) in data set [4] is > 0.513 µM. Further, the Kd in data set [5] was > 30.2 µM. Moreover, in data set [6], the IC50 was > 0.513 µM. In addition, the Kd in data set [7] was 1.26 µM.
